Here are results for 14 molecules from patent US20250034084A1, “COMPOSITIONS AND METHODS FOR PREVENTING OR TREATING MYCOSIS” (AMTIXBIO CO., LTD., priority 2016, published 2025).

Test [1] has as its system Cryptococcus neoformans var. grubii H99 (ATCC). As to the kind of experiment: Antifungal activity assay (MIC), NCCLS method. Format: cell-based. The following applies: RPMI 1640 medium. An excerpt:
(§1) In order to measure the minimum inhibitory concentration (MIC), strains Candida albicans SC5314 (ATCC), Candida glabrata BG2 (ATCC), and Cryptococcus neoformans var. grubii […] were used. All the strains used in the test examples of the present invention were purchased from Korean Culture Center of Microorganisms (KCCM) and ATCC, and used. […] As a control group, amphotericin B and fluconazole, which are known to have excellent antifungal inhibitory activity with a problem of human toxicity, were used. Specifically, in order to prepare a medium first, 8.4 g of RPMI-1640 powder (Sigma; […]-1L) was added to 900 ml of distilled water. Next, 34.5 g of MOPS was added thereto, to bring the final concentration to 0.165 M. Then, 100 ml of 20% glucose was added thereto, and then the pH of the resultant was adjusted to 7 using NaOH. Next, after performing filtration with a filter, the filtrate was stored in a refrigeration condition at 4° C. for use in the next experiment. The experimental method and procedure for the MIC assay were as follows: […] (c) in a case of Aspergillus fumigatus, a diluent was prepared at a concentration of 1×10^5 conidia/ml; (d) a 96-well plate was used and 100 μl of the solution was added to each well, so that 2 μl of diluted drug was prepared; (e) 200 μl of the solution was added to a well into which the highest concentration of drug was to be added, and dilution was performed by serial dilution; (f) after performing static culture for 48 hours at 37° C., a degree of growth was measured at OD600 and a comparison was made.

Test [2] concerns Candida albicans SC5314 (ATCC). As to the kind of experiment: Antifungal activity assay (MIC), NCCLS method. The note with it: RPMI 1640 medium. Format: cell-based.
Source text: as §1

Test [3] relates to Candida glabrata BG2 (ATCC). As to the kind of experiment: Antifungal activity assay (MIC), NCCLS method. Format: cell-based. The following applies: RPMI 1640 medium.
Source text: as §1

Test [4] has as its system Cryptococcus neoformans wild-type (H99S). Briefly: Drug efficacy in Galleria mellonella insect model infected with C. neoformans.
Procedure: The wild-type (H99S) strain of Cryptococcus neoformans, which is pathogenic fungi, was inoculated into a yeast extract, peptone, and dextrose (YPD) liquid medium, cultured for 16 hours, and then washed twice with phosphate buffered saline (PBS), to prepare a final sample of 10^6 cells/ml. […] A 4 p1 suspension of C. neoformans prepared was injected into a proleg of larvae, so that 4,000 pathogen cells were infected per larva, in which an automatic injector (PB600-1) manufactured by Hamilton Company, and 100 pl syringes and needles were used. […] A group into which PBS alone was injected each time after the infection with C. neoformans was tested as a positive control, and a group in which both infection and drug injection were replaced with PBS was tested as a negative control. […] The larvae were determined as dead in a case where the larvae became dark-colored and made no movement. […] For significance with the controls, a significance level was determined using the Long-rank (Mantel-Cox) method.
The subject of test [5] is Aspergillus fumigatus strains (KCCM32791, KCCM60031, KCCM60293, KCCM60036, KCCM60031, and KCCM60027). Briefly: MIC test against several Aspergillus fumigatus strains (FIG. 2). Format: cell-based.
Test [6] concerns Trichophyton tonsurans, Trichophyton rubrum, Trichophyton mentagrophytes. Briefly: Suppressive activity against Trichophytons on YPD solid medium. Format: cell-based. The following applies: six Trichophyton strains.
Test [7] relates to Fusarium graminearum (KCTC16656) and Fusarium (KSU11480). The class given is cell-based. The note with it: YPD solid medium, FIG. 4.

In brackets after ≈: the same amount, converted by molar mass.

With `CCC(N)C(=O)NCc1ccc(OCc2cccc(F)c2)cc1.Cl` (racemic) [Compound 18, (R)/(S)-1-((4-((3-(fluorobenzyl)oxy)benzyl)amino)-1-oxobutane-2-aminium chloride], the “MIC C. neoformans” value in test [1] came to 128 µg/mL. The “MIC C. albicans” value in test [2] was more than 128 µg/mL. Further, the “MIC C. glabrata” value in test [3] was more than 128 µg/mL. Further, the “survival rate on day 7 of the infection” value in test [4] (PBS group all died) was 50%. Moreover, the “survival of larvae on day 3 of the infection” value in test [4] (drug injected 3 h after infection and once every 24 h for two more days, PBS group 60%) is given as “all survived”.

For the molecule `CCC(N)C(=O)NCc1ccc(OCc2ccc(C(F)(F)F)cc2)cc1.Cl` (racemic) [Compound 22, (R)/(S)-1-oxo-1-((4-((4-(trifluoromethyl)benzyl)oxy)benzyl)amino)butane-2-aminium chloride], the “MIC C. neoformans” value in test [1] worked out at 16 µg/mL. Further, in test [2], the “MIC C. albicans” value was determined as 64 µg/mL. Further, the “MIC C. glabrata” value in test [3] was 32 µg/mL. Also, in test [5], the “inhibitory activity (MIC, average values) compared with amphotericin B” value is reported as “higher inhibitory activity than amphotericin B”.

For `CCC(NC)C(=O)NCc1ccc(OCc2cccc(Cl)c2)cc1` (racemic) [Compound 28, (R)/(S)-N-(4-((3-chlorobenzyl)oxy)benzyl)-2-(methylamino)butanamide], the “MIC C. neoformans” value in test [1] was found to be 16 µg/mL (≈ 46.1 µM). Moreover, the “MIC C. albicans” value in test [2] turned out to be 64 µg/mL (≈ 185 µM). For the same molecule, the “MIC C. glabrata” value in test [3] came to 64 µg/mL (≈ 185 µM). Further, the “inhibitory activity (MIC, average values) compared with amphotericin B” value in test [5] is reported as “higher inhibitory activity than amphotericin B”.

As to `CN1CCCC1C(=O)NCc1ccc(OCc2cccc(F)c2)cc1` (racemic) [Compound 42, (R)/(s)-1-methyl-N-(4-((3-fluorobenzyl)oxy)benzyl)pyrrolidine-2-carboxamide], the “MIC C. neoformans” value in test [1] was found to be 16 µg/mL (≈ 46.7 µM). Also, the “MIC C. albicans” value in test [2] turned out to be 128 µg/mL (≈ 374 µM). For the same molecule, the “MIC C. glabrata” value in test [3] was determined as 128 µg/mL (≈ 374 µM).

With `CN1CCCC1C(=O)NCc1ccc(OCc2ccc(C(F)(F)F)cc2)cc1` (racemic) [Compound 43, (R)/(S)-1-methyl-N-(4-((4-(trifluoromethyl)benzyl)oxy)benzyl)pyrrolidine-2-carboxamide], the “MIC C. neoformans” value in test [1] was 8 µg/mL (≈ 20.4 µM). Moreover, in test [2], the “MIC C. albicans” value worked out at 32 µg/mL (≈ 81.5 µM). Further, the “MIC C. glabrata” value in test [3] worked out at 64 µg/mL (≈ 163 µM).

As to `CN1CCCC1C(=O)NCc1ccc(OCc2ccc(Cl)cc2)cc1` (racemic) [Compound 44, (R)/(s)-1-methyl-N-(4-((4-chlorobenzyl)oxy)benzyl)pyrrolidine-2-carboxamide], the “MIC C. neoformans” value in test [1] amounted to 8 µg/mL (≈ 22.3 µM). Moreover, the “MIC C. albicans” value in test [2] turned out to be 32 µg/mL (≈ 89.2 µM). In addition, the “MIC C. glabrata” value in test [3] is 64 µg/mL (≈ 178 µM).

For `Cl.O=C(NCc1ccc(OCc2cccc(F)c2)cc1)C1CCCN1` (racemic) [Compound 49, (R)/(S)-2-((4-((3-fluorobenzyl)oxy)benzyl)carbamoyl)pyrrolidi-1-nium chloride], the “MIC C. neoformans” value in test [1] stood at 32 µg/mL. Further, in test [2], the “MIC C. albicans” value was more than 128 µg/mL. For the same molecule, the “MIC C. glabrata” value in test [3] was more than 128 µg/mL.

With `Cl.O=C(NCc1ccc(OCc2ccc(C(F)(F)F)cc2)cc1)C1CCCN1` (racemic) [Compound 50, (R)/(S)-2-((4-((4-(trifluoromethyl)benzyl)oxy)benzyl)carbamoyl)pyrrolidi-1-nium chloride], in test [1], the “MIC C. neoformans” value stood at 8 µg/mL. The “MIC C. albicans” value in test [2] turned out to be 64 µg/mL. Besides, the “MIC C. glabrata” value in test [3] is 128 µg/mL.

As for `Cl.O=C(NCc1ccc(OCc2ccc(Cl)cc2)cc1)C1CCCN1` (racemic) [Compound 51, (R)/(S)-2-((4-(4-chlorobenzyl)oxy)benzyl) carbamoyl)pyrrolidi-1-nium chloride], the “MIC C. neoformans” value in test [1] was 8 µg/mL. The “MIC C. albicans” value in test [2] stood at 64 µg/mL. In addition, the “MIC C. glabrata” value in test [3] was determined as 128 µg/mL.

`CN1CCC(C(=O)NCc2ccc(OCc3cccc(F)c3)cc2)C1` (racemic) [Compound 52, (R)/(s)-1-methyl-N-(4-((3-fluorobenzyl)oxy)benzyl)pyrrolidine-3-carboxamide]: the “MIC C. neoformans” value in test [1] was determined as 8 µg/mL (≈ 23.4 µM). In test [2], the “MIC C. albicans” value stood at 128 µg/mL (≈ 374 µM). For the same molecule, the “MIC C. glabrata” value in test [3] came to 128 µg/mL (≈ 374 µM).

As to `CN1CCC(C(=O)NCc2ccc(OCc3ccc(C(F)(F)F)cc3)cc2)C1` (racemic) [Compound 53, (R)/(S)-1-methyl-N-(4-((4-(trifluoromethyl)benzyl)oxy)benzyl)pyrrolidine-3-carboxamide], in test [1], the “MIC C. neoformans” value was 8 µg/mL (≈ 20.4 µM). Also, in test [2], the “MIC C. albicans” value is 64 µg/mL (≈ 163 µM). The “MIC C. glabrata” value in test [3] was determined as 64 µg/mL (≈ 163 µM).

Turning to `CN1CCC(C(=O)NCc2ccc(OCc3ccc(Cl)cc3)cc2)C1` (racemic) [Compound 54, (R)/(s)-1-methyl-N-(4-((4-chlorobenzyl)oxy)benzyl)pyrrolidine-3-carboxamide], the “MIC C. neoformans” value in test [1] turned out to be 8 µg/mL (≈ 22.3 µM). In test [2], the “MIC C. albicans” value was 64 µg/mL (≈ 178 µM). Besides, the “MIC C. glabrata” value in test [3] came to 64 µg/mL (≈ 178 µM).

On to `C[C@@H]1[C@H](O)[C@@H](C)/C=C/C=C/C=C/C=C/C=C/C=C/C=C/[C@H](O[C@@H]2O[C@H](C)[C@@H](O)[C@H](N)[C@@H]2O)C[C@@H]2O[C@](O)(C[C@@H](O)C[C@@H](O)[C@H](O)CC[C@@H](O)C[C@@H](O)CC(=O)O[C@H]1C)C[C@H](O)[C@H]2C(=O)O` [AmpB, amphotericin B, reference compound], for which the “MIC C. neoformans” value in test [1] stood at 0.125 µg/mL (≈ 0.135 µM). Besides, the “MIC C. albicans” value in test [2] is 0.25 µg/mL (≈ 0.271 µM). For the same molecule, the “MIC C. glabrata” value in test [3] was 0.5 µg/mL (≈ 0.541 µM).

Consider “(R)/(S)-1-((4-((4-(trifluorobenzyl)oxy)benzyl)amino)-1-oxopentane-2-aminium chloride [Compound 26]”, for which the “suppressive activity against Trichophytons” value in test [6] was “excellent suppressive activity”. The “MIC C. neoformans” value in test [1] worked out at 4 µg/mL. In test [2], the “MIC C. albicans” value was 16 µg/mL. In test [3], the “MIC C. glabrata” value was determined as 8 µg/mL. Further, in test [7], the “suppressive activity against phytopathogenic fungi” value is reported as “very excellent suppressive activity”. Besides, the “inhibitory activity (MIC, average values) compared with amphotericin B” value in test [5] is “higher inhibitory activity than amphotericin B”.
